Columns and labels:
UXF 1138 = test: Cytotoxicity, propidium iodide based monolayer assay; format: cell-based; conditions: 96 h; UXF 1138 uterine sarcoma, four days of treatment, T/C=50%; read-out: Absolute IC50
Experimental: The cytotoxicity was tested for compounds of the invention on five different cell-lines, namely LXFL 1121, MAXF 401, MMXF L-636, PRXF PC-3M and UXF 1138 which are respectively lung large cell carcinoma, breast adeno carcinoma, multiple myeloma, prostate adeno carcinoma and uterine sarcoma.
A working stock solution of the test compounds was prepared in DMSO at a concentration of 33 mM or 8.25 mM, and small aliquots were stored at −20° C. On each day of an experiment, a frozen aliquot of the working stock solution was thawed and stored at room temperature prior to and during treatment.
All liquid handling steps were performed using the Tecan Freedom EVO 200 platform. First, serial 2-fold dilutions of the 33 mM DMSO working stock solution were done in DMSO. The DMSO dilutions were then diluted 1:22 into cell culture medium in an intermediate dilution plate. Finally, 10 μl taken from the intermediate dilution plate were transferred to 140 μl/well of the final assay plate. Thus, the DMSO serial dilutions were diluted 1:330 with cell culture medium, and the DMSO concentration in the assay was 0.3% v/v.
Cell lines were routinely passaged once or twice weekly and maintained in culture for up to 20 passages. Most cell lines were grown at 37° C. in a humidified atmosphere with 5% CO2 in RPMI 1640 medium (25 mM HEPES, with L-glutamine, #FG1385, Biochrom, Berlin, Germany) supplemented with 10% (v/v) fetal calf serum (Sigma, Taufkirchen, Germany) and 0.05 mg/mL gentamicin (Life Technologies, Karlsruhe, Germany).
A modified propidium iodide (PI) based monolayer assay was used to assess the anti-cancer activity of the compounds. Briefly, cells were harvested from exponential phase cultures, counted and plated in 96 well flat-bottom microtiter plates at a cell density of 4,000 to 40,000 cells/well dependent on the cell line's growth rate. The individual seeding density for each cell line ensure exponential growth conditions over the whole or at least the bigger part of the treatment period. After a 24 h recovery period, to allow the cells to resume exponential growth, 10 μl of culture medium (6 control wells/cell line/plate) or of culture medium with test compounds were added. Compounds were applied at ten concentrations in 2-fold increments in duplicates up to 25 μM or 100 μM and treatment continued for four days. After four days of treatment, cells were next washed with 200 μl PBS to remove dead cells and debris, then 200 μl of a solution containing 7 μg/ml propidium iodide (PI) and 0.1% (v/v) Triton X-100 was added. After an incubation period of 1-2 hours at room temperature, fluorescence (FU) was measured using the Enspire Multimode Plate Reader (excitation λ=530 nm, emission k=620 nm) to quantify the amount of attached viable cells.
Drug effects were expressed in terms of the percentage of the fluorescence signal, obtained by comparison of the mean signal in the treated wells with the mean signal of the untreated controls (expressed by the test-versus-control value, T/C−value [%]):
[formula] IC values reported reflect the concentration of the test compound that achieves T/C=50%. Calculation was done by 4 parameter non-linear curve fit.

[1] = biological target: T1, CISD1 Gene Product (mitoNEET) (Homo sapiens, UniProt Q9NZ45); test: Stability of Fe-S cluster binding of purified NEET protein (absorbance 458 nm); format: biochemical; conditions: for Time (in minutes) to achieve 50% loss of bound cluster (Absorbance 458 nm) / Residual cluster bound at end of experiment (Percentage Absorbance 458 nm at time zero): mitoNEET 20 μM, compound 60 μM; for Time (in minutes) to achieve 50% loss of bound cluster (Absorbance 458 nm): pH 6, 37° C., run time 180 minutes, vehicle control 80; for Residual cluster bound at end of experiment (Percentage Absorbance 458 nm at time zero): pH 6, at 180 minutes, vehicle control 16%
T1 sequence (Q9NZ45 33-108 limits assumed): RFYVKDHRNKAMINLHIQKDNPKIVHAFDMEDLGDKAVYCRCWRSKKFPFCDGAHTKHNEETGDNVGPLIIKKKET
Method in brief: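 Purified NEET protein (20 μM) with compound (60 μM, 1:3 molar ratio) in 100 mM Bis-Tris pH 6, 100 mM NaCl, 66 μM DMSO at 37 °C; 458 nm absorbance decay read every 5 min for 500 min (NAF-1) or 180 min (mitoNEET, Miner2). Outputs: time to 50% absorbance loss and residual % bound cluster, versus protein alone.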

[2] = test system: H1N1 (influenza A/New Caledonia/20/99); test: microbe, parasite or virus in culture; format: cell-based; conditions: H1N1, A549, 48 h

How did the IC50 (UXF 1138) turn out when `COC1CN(c2ccc(C(=O)Nc3sc4c(c3C(=O)O)CC(C)(C)CC4(C)C)cc2)C1` [Compound #58, 2-[[4-(3-Methoxyazetidin-1-yl)benzoyl]amino]-5,5,7,7-tetramethyl-4,6-dihydrobenzothiophene-3-carboxylic acid] was run?
Its IC50 is 819 nM.

What about the “Time (in minutes) to achieve 50% loss of bound cluster (Absorbance 458 nm)” value [1] of the same compound?
The value was 100 (80) minutes.

And the “Residual cluster bound at end of experiment (Percentage Absorbance 458 nm at time zero)” value [1]?
Its value is 36% (16%).

What about the “Stabiliser or destabiliser of Fe-S cluster binding by CISD1 Gene Product (mitoNEET)” value ([1]; time to 50% cluster loss changed by more than 25% compared to the Control sample, at the concentrations tested) of the same compound?
The value was “stabilisers”.

What about the IC50 [2] of the same compound?
The IC50 was 0.9 nM.

How did the IC50 (UXF 1138) turn out when `CC1(C)CCc2sc(NC(=O)c3ccccc3)c(C(=O)O)c21` [Compound #37, 2-Benzamido-4,4-dimethyl-5,6-dihydrocyclopenta[b]thiophene-3-carboxylic acid] was run?
The IC50 was 9420 nM.

What about the “Time (in minutes) to achieve 50% loss of bound cluster (Absorbance 458 nm)” value [1] of the same compound?
Its value is 85 (80) minutes.

What about the “Residual cluster bound at end of experiment (Percentage Absorbance 458 nm at time zero)” value [1] of the same compound?
The value was 23% (16%).

And the IC50 [2]?
Its IC50 is 196 nM.

`CC1(C)Cc2c(sc(NC(=O)c3ccc(N4CCOCC4)cc3)c2C(=O)O)C(C)(C)C1` [Compound #36, 5,5,7,7-Tetramethyl-2-[(4-morpholinobenzoyl)amino]-4,6-dihydrobenzothiophene-3-carboxylic acid] was tested. Which IC50 (UXF 1138) did it give?
The IC50 was 988 nM.

What about the “Time (in minutes) to achieve 50% loss of bound cluster (Absorbance 458 nm)” value [1] of the same compound?
Its value is 98 (80) minutes.

And the “Residual cluster bound at end of experiment (Percentage Absorbance 458 nm at time zero)” value [1]?
The value was 36 % (16%).

What about the IC50 [2] of the same compound?
The IC50 was 40.1 nM.

Reference: patent US11492347B2 (ENYO PHARMA, priority 2018, dated 2022)
